The results in this text go back to PubChem BioAssay (NCI).

Among the test systems are 786-0 renal; A549 NSCLC; UO-31 renal; SF-295 CNS; NCI/ADR-RES ovarian; BT-549 breast; MALME-3M melanoma; CAKI-1 renal; RPMI-8226 leukemia; RXF 393 renal; MDA-N; HS 578T breast; OVCAR-4 ovarian; OVCAR-8 ovarian; A498 renal; NCI-H226 lung; MOLT-4 leukemia; K-562 leukemia; CCRF-CEM leukemia.
Common to all, as to assay: NCI tumour cell line growth inhibition, 48 h

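Growth conditions: 96-well plates. Treatment: test compound, 48 hours, 5 concentrations. Analysis: linear interpolation between bracketing concentrations; unreached endpoints set to highest concentration. TGI denotes the concentration required for complete inhibition of growth.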

As to `Cc1cc(NCc2ccccc2)c2ccccc2[n+]1CCCCCCCCCC[n+]1c(C)cc(NCc2ccccc2)c2ccccc21`, the TGI in the test with 786-0 renal stood at 2.44 µM; in the test with A549 NSCLC, 4.39 µM; with UO-31 renal, 7.15 µM; in the test with SF-295 CNS, 2.49 µM; in the test with NCI/ADR-RES ovarian, 21.9 µM; in the test on BT-549 breast, 1.98 µM. For the same compound, the TGI in the test on MALME-3M melanoma was more than 100 µM; with CAKI-1 renal, 5.48 µM; in the test on RPMI-8226 leukemia, 1.44 µM; in the test on RXF 393 renal, 12.9 µM; with MDA-N it was 1.4 µM; in the test on HS 578T breast, 11.6 µM. For the same compound, the results for the TGI in the test with OVCAR-4 ovarian, in the test with OVCAR-8 ovarian and with A498 renal were more than 100 µM, 6.71 µM and 14.5 µM, respectively.

Take `CC(C(O)Cc1ccccc1)N(C)N=Nc1ccc([N+](=O)[O-])cc1` (configuration not stated): the TGI in the test on 786-0 renal is 38.6 µM; in the test on A549 NSCLC, 72 µM; with UO-31 renal, 31.8 µM; in the test with NCI-H226 lung, 39.5 µM; in the test with SF-295 CNS, 46.2 µM; in the test on NCI/ADR-RES ovarian it was 39.9 µM. Besides, the TGI in the test with BT-549 breast was 40.4 µM; with MALME-3M melanoma it was 43.3 µM; in the test on CAKI-1 renal, 51.8 µM; with RPMI-8226 leukemia, 55.5 µM; in the test with MOLT-4 leukemia it was more than 100 µM; with RXF 393 renal, 23.7 µM. Further, the TGI with MDA-N was 39.7 µM; in the test on HS 578T breast, 55.6 µM; with K-562 leukemia, more than 100 µM; with CCRF-CEM leukemia, more than 100 µM; in the test on OVCAR-4 ovarian, more than 100 µM; in the test on OVCAR-8 ovarian, 33.7 µM.

Turning to `Cc1cc(S(=O)(=O)Nc2nc3cc(-c4ccc(Cl)cc4)sc3c(=O)n2N)c(S)cc1Cl`, the TGI in the test with 786-0 renal, with A549 NSCLC, in the test with UO-31 renal, in the test on SF-295 CNS, in the test on NCI/ADR-RES ovarian and in the test with BT-549 breast was more than 100 µM each time. For the same compound, the TGI in the test with MALME-3M melanoma is more than 100 µM; in the test with CAKI-1 renal it was more than 100 µM; in the test with RPMI-8226 leukemia, more than 100 µM; in the test with MOLT-4 leukemia, 55.3 µM; in the test on RXF 393 renal, more than 100 µM; in the test with MDA-N it was more than 100 µM. In addition, the TGI in the test on HS 578T breast was more than 100 µM; in the test with K-562 leukemia it was more than 100 µM; in the test with CCRF-CEM leukemia, 59 µM; in the test with OVCAR-4 ovarian, more than 100 µM; in the test with OVCAR-8 ovarian, more than 100 µM.

With `C=C([C@@]1(O)C[C@H]2[C@H](CCC2(OC)OC)[C@@H]2c3ccccc3O[C@@H]21)[Si](C)(C)C`, the TGI in the test with 786-0 renal, with A549 NSCLC, in the test with UO-31 renal, in the test with NCI-H226 lung, in the test with SF-295 CNS and in the test on NCI/ADR-RES ovarian was more than 100 µM each time. Besides, the TGI in the test on BT-549 breast, in the test with CAKI-1 renal, with RPMI-8226 leukemia, in the test with MOLT-4 leukemia, with MDA-N and in the test with HS 578T breast was more than 100 µM throughout. In addition, the TGI in the test with K-562 leukemia, in the test with OVCAR-4 ovarian, with OVCAR-8 ovarian and in the test on A498 renal was more than 100 µM each time.

As for `Cc1nc2sc3ccccc3n2c(=O)c1N=Nc1ccc(Cl)cc1`, the TGI with 786-0 renal, in the test with A549 NSCLC, in the test with NCI-H226 lung, in the test on SF-295 CNS, with NCI/ADR-RES ovarian and in the test with BT-549 breast was more than 100 µM in each case. Also, the TGI with MALME-3M melanoma, with CAKI-1 renal, in the test with RPMI-8226 leukemia, in the test on MOLT-4 leukemia, in the test on RXF 393 renal and in the test on MDA-N was more than 100 µM in each case. For the same compound, the TGI in the test on HS 578T breast, in the test on K-562 leukemia, in the test on CCRF-CEM leukemia, in the test on OVCAR-4 ovarian and with OVCAR-8 ovarian was more than 100 µM throughout.

Regarding `C=C1CN2CC(=C)CN(C1)CS(=O)(=O)N1CC(=C)CN(CC(=C)C1)S(=O)(=O)N1CC(=C)CN(CC(=C)C1)S(=O)(=O)C2`, the TGI with 786-0 renal is 58.9 µM; in the test on A549 NSCLC it was more than 100 µM; with UO-31 renal it was more than 100 µM; in the test with NCI-H226 lung, 71.5 µM; with SF-295 CNS it was more than 100 µM; in the test on NCI/ADR-RES ovarian, more than 100 µM. The TGI was more than 100 µM in the test on BT-549 breast; 86.4 µM in the test with MALME-3M melanoma; more than 100 µM in the test on CAKI-1 renal; more than 100 µM in the test on RPMI-8226 leukemia; more than 100 µM in the test with MOLT-4 leukemia; 56.8 µM with RXF 393 renal. Besides, the TGI with MDA-N was more than 100 µM; with HS 578T breast it was 86.1 µM; in the test with K-562 leukemia it was more than 100 µM; in the test on OVCAR-4 ovarian, more than 100 µM; in the test with OVCAR-8 ovarian it was more than 100 µM; in the test on A498 renal, more than 100 µM.

Take `CC(=O)NC1c2ccccc2C(C)(C)C12CCC1(CC2)OCCO1` (configuration not stated): the TGI with 786-0 renal, in the test with A549 NSCLC, in the test on UO-31 renal, with NCI-H226 lung, with SF-295 CNS and in the test on NCI/ADR-RES ovarian was more than 100 µM each time. Besides, the TGI in the test on BT-549 breast, in the test on MALME-3M melanoma, in the test on CAKI-1 renal, in the test on RPMI-8226 leukemia, with MOLT-4 leukemia and with RXF 393 renal was more than 100 µM throughout. For the same compound, the TGI in the test with MDA-N, in the test on HS 578T breast, with K-562 leukemia, with CCRF-CEM leukemia, in the test with OVCAR-4 ovarian and in the test on OVCAR-8 ovarian was more than 100 µM each time.

Regarding `O=C1O[C@H](c2ccc3c(c2)OCO3)[C@H]2CO[C@@H](c3ccc4c(c3)OCO4)[C@@H]12`, the TGI with 786-0 renal, in the test with A549 NSCLC, in the test on UO-31 renal, in the test with NCI-H226 lung, in the test on SF-295 CNS and in the test with NCI/ADR-RES ovarian was more than 100 µM in each case. Moreover, the TGI with BT-549 breast, in the test on MALME-3M melanoma, with CAKI-1 renal, with RPMI-8226 leukemia, in the test with MOLT-4 leukemia and in the test on RXF 393 renal was more than 100 µM in each case. Also, the TGI with MDA-N, in the test on HS 578T breast, in the test with K-562 leukemia, with OVCAR-4 ovarian and with OVCAR-8 ovarian was more than 100 µM throughout.

For the compound `O=c1oc2ccc([N+](=O)[O-])cc2c(Nc2ccc3c(c2)Oc2ccccc2O3)c1[N+](=O)[O-]`, the TGI in the test on 786-0 renal was 67.9 µM; with A549 NSCLC it was more than 100 µM; in the test with UO-31 renal it was more than 100 µM; in the test with NCI-H226 lung it was 87.1 µM; with SF-295 CNS it was more than 100 µM; in the test on NCI/ADR-RES ovarian it was more than 100 µM. Besides, the TGI is more than 100 µM in the test on BT-549 breast; more than 100 µM in the test on MALME-3M melanoma; more than 100 µM with CAKI-1 renal; 70.2 µM in the test with RPMI-8226 leukemia; more than 100 µM in the test with RXF 393 renal; more than 100 µM with MDA-N. The TGI is more than 100 µM in the test on HS 578T breast; 86.7 µM with K-562 leukemia; 84.7 µM in the test on CCRF-CEM leukemia; more than 100 µM in the test on OVCAR-4 ovarian; more than 100 µM with OVCAR-8 ovarian.

Turning to `CN(C)c1ccc(C2SCC(=O)N2c2ccc(Oc3ccc(Cl)cc3)c(Cl)c2)cc1` (configuration not stated), the TGI in the test on 786-0 renal is 41.7 µM; in the test with A549 NSCLC it was 60.3 µM; in the test with UO-31 renal, 29.6 µM; in the test on NCI-H226 lung, more than 100 µM; in the test with NCI/ADR-RES ovarian, 50.7 µM; with BT-549 breast, 48.2 µM. Further, the TGI is 38.4 µM in the test with MALME-3M melanoma; more than 100 µM with CAKI-1 renal; 58.1 µM with RPMI-8226 leukemia; more than 100 µM in the test with MOLT-4 leukemia; 58.5 µM in the test on MDA-N; 40.4 µM in the test on HS 578T breast. The TGI with CCRF-CEM leukemia stood at 69.5 µM; in the test with OVCAR-4 ovarian, 69 µM; with OVCAR-8 ovarian, 86.4 µM.

Consider `Cn1c2ccccc2c(=NNc2cccc(C(=O)O)c2)c2ccccc21`, for which the TGI in the test on 786-0 renal is 52 µM; in the test on A549 NSCLC, 27.3 µM; in the test on UO-31 renal, 46.3 µM; in the test with NCI-H226 lung, 48.6 µM; in the test on SF-295 CNS, 58.5 µM; with NCI/ADR-RES ovarian, 67.7 µM. Besides, the TGI in the test with BT-549 breast was determined as 62.8 µM; with MALME-3M melanoma it was 38.3 µM; in the test with CAKI-1 renal, 73.3 µM; with RPMI-8226 leukemia it was 28.3 µM; with MOLT-4 leukemia, 22.7 µM; in the test on RXF 393 renal, 22 µM. Moreover, the TGI turned out to be 31.3 µM with MDA-N; 64.7 µM in the test with HS 578T breast; 13.8 µM in the test with K-562 leukemia; 25.6 µM with CCRF-CEM leukemia; 40.3 µM in the test on OVCAR-4 ovarian; 53.3 µM in the test on OVCAR-8 ovarian.

With `Cc1ccc(S(=O)(=O)NC(=O)N[C@@H](Cc2cnc[nH]2)C(=O)O)cc1`, the TGI in the test with 786-0 renal, in the test with A549 NSCLC, with UO-31 renal, in the test on SF-295 CNS, in the test with NCI/ADR-RES ovarian and in the test with BT-549 breast was more than 100 µM in each case. For the same compound, the TGI with MALME-3M melanoma, in the test on RPMI-8226 leukemia, with MOLT-4 leukemia, with RXF 393 renal, in the test on MDA-N and with HS 578T breast was more than 100 µM each time. Also, the TGI in the test on K-562 leukemia, in the test with CCRF-CEM leukemia, in the test on OVCAR-4 ovarian and in the test on OVCAR-8 ovarian was more than 100 µM in each case.
